Source: patent US20240158446A1, “CYCLIC COMPOUND HAVING SELECTIVE INHIBITORY ACTION ON KRAS OVER HRAS AND NRAS” (CHUGAI SEIYAKU KABUSHIKI KAISHA, priority 2021, published 2024)

Legend:
[1] = target: GDP-bound HRAS wild-type protein (Homo sapiens, UniProt P01112); assay: Binding to HRAS by surface plasmon resonance (SPR), Single Cycle Kinetics; details: for HRAS/KRAS (ratio of KD value for HRAS to KD value for KRAS) / HRAS/KRAS (ratio of KD value with respect to HRAS to KD value with respect to KRAS): SPR, GDP-bound HRAS wild-type protein vs GDP-bound KRAS wild-type protein; for HRAS/KRAS (ratio of KD value with respect to GDP-bound HRAS wild-type protein to KD value with respect to KRAS): SPR KD ratio HRAS/KRAS, class symbols
GDP-bound HRAS wild-type protein, sequence (P01112 whole entry): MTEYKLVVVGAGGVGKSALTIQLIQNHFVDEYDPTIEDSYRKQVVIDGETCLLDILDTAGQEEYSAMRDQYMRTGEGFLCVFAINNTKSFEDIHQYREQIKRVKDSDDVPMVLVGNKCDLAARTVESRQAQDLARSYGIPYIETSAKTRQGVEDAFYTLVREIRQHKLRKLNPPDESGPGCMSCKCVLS

[2] = target: GDP-bound NRAS wild-type protein (Homo sapiens, UniProt P01111); assay: Binding to NRAS by surface plasmon resonance (SPR), Single Cycle Kinetics; details: for NRAS/KRAS (ratio of KD value for NRAS to KD value for KRAS) / NRAS/KRAS (ratio of KD value with respect to NRAS to KD value with respect to KRAS): SPR, GDP-bound NRAS wild-type protein vs GDP-bound KRAS wild-type protein; for NRAS/KRAS (ratio of KD value with respect to GDP-bound NRAS wild-type protein to KD value with respect to KRAS): SPR KD ratio NRAS/KRAS, class symbols
GDP-bound NRAS wild-type protein, sequence (P01111 whole entry): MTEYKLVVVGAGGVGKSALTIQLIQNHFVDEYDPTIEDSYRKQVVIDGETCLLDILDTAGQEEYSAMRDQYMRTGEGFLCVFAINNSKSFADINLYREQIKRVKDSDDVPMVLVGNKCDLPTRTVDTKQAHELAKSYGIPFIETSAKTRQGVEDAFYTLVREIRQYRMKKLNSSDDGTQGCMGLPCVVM

SMILES	HRAS/KRAS (ratio of KD value for HRAS to KD value for KRAS) [1]	NRAS/KRAS (ratio of KD value for NRAS to KD value for KRAS) [2]	also measured
CCO[C@@H]1C[C@H]2C(=O)NC3(CCC3)C(=O)N(C)[C@@H](C3CCCC3)C(=O)N(C)[C@H](C(=O)N3CCOCC3)CC(=O)N(C)[C@@H](CC(C)C)C(=O)N[C@@H]([C@@H](C)CC)C(=O)N(C)CC(=O)N(C)[C@H]3CC(C)=CCN(C3=O)[C@@H](Cc3ccc(C(F)(F)F)cc3)C(=O)N(C)CC(=O)N[C@@H](CCc3cc(F)c(C(F)(F)F)c(F)c3)C(=O)N2C1 [PP1039]	C (A compound having a KD ratio of 0.1 or more and less than 3 is denoted as C)	C (A compound having a KD ratio of 0.1 or more and less than 3 is denoted as C)	
CCO[C@@H]1C[C@H]2C(=O)NC3(CCC3)C(=O)N(C)[C@@H](C3CCCC3)C(=O)N(C)[C@H](C(=O)N3CCOCC3)CC(=O)N(C)[C@@H](CC3CC3)C(=O)N[C@@H]([C@@H](C)CC)C(=O)N(C)CC(=O)N(C)[C@H]3CCCCCN(C3=O)[C@@H](Cc3ccc(C(F)(F)F)cc3)C(=O)N(C)CC(=O)N[C@@H](CCc3cc(F)c(C(F)(F)F)c(F)c3)C(=O)N2C1 [PP0682]			HRAS/KRAS (ratio of KD value with respect to HRAS to KD value with respect to KRAS) [1]: B (a compound having 3 or more and less than 10 is denoted as B); NRAS/KRAS (ratio of KD value with respect to NRAS to KD value with respect to KRAS) [2]: B (a compound having 3 or more and less than 10 is denoted as B)
CCO[C@@H]1C[C@H]2C(=O)NC3(CCC3)C(=O)N(C)[C@@H](C3CCCC3)C(=O)N(C)[C@H](C(=O)N(C)C)CC(=O)N(C)[C@@H](CC)C(=O)N[C@@H]([C@@H](C)CC)C(=O)N(C)CC(=O)N(C)[C@H]3CCCCCN(C3=O)[C@@H](Cc3ccc4ccsc4c3)C(=O)N(C)CC(=O)N[C@@H](CCc3cc(F)c(C(F)(F)F)c(F)c3)C(=O)N2C1 [PP0910]	B (a compound having 3 or more and less than 10 is denoted as B)	B (a compound having 3 or more and less than 10 is denoted as B)	
CCC[C@H]1C(=O)N[C@@H]([C@@H](C)CC)C(=O)N(C2CC2)CC(=O)N(C)[C@H]2C/C=C\CCN(C2=O)[C@@H](Cc2ccc(C)cc2)C(=O)N(C)CC(=O)N[C@@H](CCc2cc(C)c(C(F)F)c(F)c2)C(=O)N2C[C@H](OCC)C[C@H]2C(=O)NC2(CC(C)(C)C2)C(=O)N(C)[C@@H](C2CCCC2)C(=O)N(C)[C@H](C(=O)N(C)C)CC(=O)N1C [PP2874]			HRAS/KRAS (ratio of KD value with respect to GDP-bound HRAS wild-type protein to KD value with respect to KRAS) [1]: A (a compound having 10 or more and less than 20 is denoted as A); NRAS/KRAS (ratio of KD value with respect to GDP-bound NRAS wild-type protein to KD value with respect to KRAS) [2]: A (a compound having 10 or more and less than 20 is denoted as A)
CCOC[C@H]1C(=O)N[C@@H]([C@@H](C)CC)C(=O)N(C)CC(=O)N(C)[C@H]2C/C=C\CCN(C2=O)[C@@H](Cc2ccc(C(C)=O)cc2)C(=O)N(C)CC(=O)N[C@@H](CCc2ccc(C(F)(F)F)c(OC)c2)C(=O)N2C[C@@H](C)C[C@H]2C(=O)NC2(CC(C)(C)C2)C(=O)N(C)[C@@H](C2CCCC2)C(=O)N(C)[C@H](C(=O)N(C)CC)CC(=O)N1C [PP2703]			HRAS/KRAS (ratio of KD value with respect to GDP-bound HRAS wild-type protein to KD value with respect to KRAS) [1]: A (a compound having 10 or more and less than 20 is denoted as A); NRAS/KRAS (ratio of KD value with respect to GDP-bound NRAS wild-type protein to KD value with respect to KRAS) [2]: AA (a compound having 20 or more is denoted as AA)
CCO[C@@H]1C[C@H]2C(=O)NC3(CCC3)C(=O)N(C)[C@@H](C3CCCC3)C(=O)N(CC)[C@H](C(=O)N3CCOCC3)CC(=O)N(C)[C@@H](CC(C)C)C(=O)N[C@@H]([C@@H](C)CC)C(=O)N(C)CC(=O)N(C)[C@H]3CCCCCN(C3=O)[C@@H](Cc3ccc(C(F)(F)F)cc3)C(=O)N(C)CC(=O)N[C@@H](CCc3cc(F)c(C(F)(F)F)c(F)c3)C(=O)N2C1 [PP0638]			HRAS/KRAS (ratio of KD value with respect to HRAS to KD value with respect to KRAS) [1]: B (a compound having 3 or more and less than 10 is denoted as B); NRAS/KRAS (ratio of KD value with respect to NRAS to KD value with respect to KRAS) [2]: B (a compound having 3 or more and less than 10 is denoted as B)
CCCOC[C@H]1C(=O)N[C@@H]([C@@H](C)CC)C(=O)N(C)CC(=O)N(C)[C@H]2C/C=C\CCN(C2=O)[C@@H](Cc2ccc(C)cc2)C(=O)N(C)CC(=O)N[C@@H](CCc2cc(F)c(C(F)(F)F)c(F)c2)C(=O)N2C[C@H](CCC)C[C@H]2C(=O)NC2(CC(C)(C)C2)C(=O)N(C)[C@@H](C2CCCC2)C(=O)N(C)[C@H](C(=O)N(C)C)CC(=O)N1C [PP2203]	A (a compound having 10 or more and less than 20 is denoted as A)	A (a compound having 10 or more and less than 20 is denoted as A)	
CCCN1C(=O)[C@H](C2CCCC2)N(C)C(=O)C2(CCC2)NC(=O)[C@@H]2C[C@@H](OCC)CN2C(=O)[C@H](CCc2cc(F)c(C(F)(F)F)c(F)c2)NC(=O)CN(C)C(=O)[C@H](Cc2ccc(C(F)(F)F)cc2)N2CCCC[C@@H](C2=O)N(C)C(=O)CN(C)C(=O)[C@H]([C@@H](C)CC)NC(=O)[C@H](CC)N(C)C(=O)C[C@H]1C(=O)N(C)C [PP0644]			HRAS/KRAS (ratio of KD value with respect to HRAS to KD value with respect to KRAS) [1]: B (a compound having 3 or more and less than 10 is denoted as B); NRAS/KRAS (ratio of KD value with respect to NRAS to KD value with respect to KRAS) [2]: C (A compound having a KD ratio of 0.1 or more and less than 3 is denoted as C)
CC[C@H](C)[C@@H]1NC(=O)[C@H](COC)N(C)C(=O)C[C@@H](C(=O)N2CCOCC2)N(C)C(=O)[C@H](C2CCCC2)N(C)C(=O)C2(CCC2)NC(=O)[C@@H]2CC(F)(F)CN2C(=O)[C@H](CCc2cc(F)c(C(F)(F)F)c(F)c2)NC(=O)CN(C)C(=O)[C@H](Cc2ccc(C(F)(F)F)cc2)N2CCCCC[C@@H](C2=O)N(C)C(=O)CN(C)C1=O [PP0834]	B (a compound having 3 or more and less than 10 is denoted as B)	A (a compound having 10 or more and less than 20 is denoted as A)	
CCC[C@H]1C(=O)N[C@@H]([C@@H](C)CC)C(=O)N(C)CC(=O)N(C)[C@H]2C/C=C\CCN(C2=O)[C@@H](Cc2ccc(C)cc2)C(=O)N(C)CC(=O)N[C@@H](CCc2cc(F)c(C(F)(F)F)c(F)c2)C(=O)N2C[C@H](CC)C[C@H]2C(=O)NC2(CCCC2)C(=O)N(C)[C@@H](C2CCCC2)C(=O)N(C)[C@H](C(=O)N(C)C)CC(=O)N1C [PP2216]	A (a compound having 10 or more and less than 20 is denoted as A)	A (a compound having 10 or more and less than 20 is denoted as A)	
CCOC[C@H]1C(=O)N[C@@H]([C@@H](C)CC)C(=O)N(C)CC(=O)N(C)[C@H]2CCCCCN(C2=O)[C@@H](Cc2ccc(C(F)(F)F)cc2)C(=O)N(C)CC(=O)N[C@@H](CCc2cc(F)c(C(F)(F)F)c(F)c2)C(=O)N2C[C@H](OCC)C[C@H]2C(=O)NC2(CCC2)C(=O)N(C)[C@@H](C2CCCC2)C(=O)N(C)[C@H](C(=O)N2CCOCC2)CC(=O)N1C [PP0851]	B (a compound having 3 or more and less than 10 is denoted as B)	B (a compound having 3 or more and less than 10 is denoted as B)	
CCC[C@H]1C(=O)N[C@@H]([C@@H](C)CC)C(=O)N(C)CC(=O)N(C)[C@H]2C/C=C\CCN(C2=O)[C@@H](Cc2ccc(C)cc2)C(=O)N(C)CC(=O)N[C@@H](CCc2ccc(C(F)(F)F)c(Cl)c2)C(=O)N2C[C@H](CC)C[C@H]2C(=O)NC2(CCC2)C(=O)N(C)[C@@H](C2CCCC2)C(=O)N(C)[C@H](C(=O)N(C)C)CC(=O)N1C [PP2237]	A (a compound having 10 or more and less than 20 is denoted as A)	A (a compound having 10 or more and less than 20 is denoted as A)	
CCCN1C(=O)[C@@H]2CCN2C(=O)[C@H](C)N(C)C(=O)[C@H]([C@@H](C)CC)NC(=O)[C@H](CC(C)C)N(C)C(=O)C[C@@H](C(=O)N2CCOCC2)N(C)C(=O)[C@H](C2CCCC2)N(C)C(=O)C2(CCCC2)NC(=O)[C@@H]2C[C@H](O)CN2C(=O)[C@H](CCc2ccc(C(F)(F)F)c(Cl)c2)NC(=O)CN(C)C(=O)[C@@H]1Cc1ccc(C(F)(F)F)cc1 (stereo in doubt) [PP0238]	C (A compound having a KD ratio of 0.1 or more and less than 3 is denoted as C)	C (A compound having a KD ratio of 0.1 or more and less than 3 is denoted as C)	
CCC[C@@H]1C[C@H]2C(=O)NC3(CCCC3)C(=O)N(C)[C@@H](C3CCCC3)C(=O)N(C)[C@H](C(=O)N(C)C)CC(=O)N(C)[C@@H](CC)C(=O)N[C@@H]([C@@H](C)CC)C(=O)N(C)CC(=O)N(C)[C@H]3C/C=C\CCN(C3=O)[C@@H](Cc3ccc(C)cc3)C(=O)N(C)CC(=O)N[C@@H](CCc3cc(F)c(C(F)(F)F)c(F)c3)C(=O)N2C1 [PP2227]	A (a compound having 10 or more and less than 20 is denoted as A)	A (a compound having 10 or more and less than 20 is denoted as A)	
CCO[C@@H]1C[C@H]2C(=O)NC3(CC(C)(C)C3)C(=O)N(C)[C@@H](C(CC)CC)C(=O)N(C)[C@H](C(=O)N(C)C)CC(=O)N(C)[C@@H](CC(C)C)C(=O)N[C@@H]([C@@H](C)CC)C(=O)N(C)CC(=O)N(C)[C@H]3C/C=C\CCN(C3=O)[C@@H](Cc3ccc(C)cc3)C(=O)N(C)CC(=O)N[C@@H](CCc3ccc(C(F)(F)F)c(Cl)c3)C(=O)N2C1 [PP2148]	A (a compound having 10 or more and less than 20 is denoted as A)	A (a compound having 10 or more and less than 20 is denoted as A)	
CCO[C@@H]1C[C@H]2C(=O)NC3(CCC3)C(=O)N(C)[C@@H](C3CCCC3)C(=O)N(C)[C@H](C(=O)N3CCOCC3)CC(=O)N(C)[C@@H](CC(C)C)C(=O)N[C@@H]([C@H](C)CC)C(=O)N(C)CC(=O)N(C)[C@H]3CCCCN(C3=O)[C@@H](Cc3ccc(C(F)(F)F)cc3)C(=O)N(C)CC(=O)N[C@@H](CCc3cc(F)c(C(F)(F)F)c(F)c3)C(=O)N2C1 [PP0806]			HRAS/KRAS (ratio of KD value with respect to HRAS to KD value with respect to KRAS) [1]: B (a compound having 3 or more and less than 10 is denoted as B); NRAS/KRAS (ratio of KD value with respect to NRAS to KD value with respect to KRAS) [2]: B (a compound having 3 or more and less than 10 is denoted as B)
